What all share (type): biochemical
In one assay the target is T1, BelH (Streptomyces sp., UniProt A0A1W6R584).
T1 construct: N-terminal His tag (pET28-a(+)), E. coli BL21(DE3)
T1 sequence (A0A1W6R584 1-491): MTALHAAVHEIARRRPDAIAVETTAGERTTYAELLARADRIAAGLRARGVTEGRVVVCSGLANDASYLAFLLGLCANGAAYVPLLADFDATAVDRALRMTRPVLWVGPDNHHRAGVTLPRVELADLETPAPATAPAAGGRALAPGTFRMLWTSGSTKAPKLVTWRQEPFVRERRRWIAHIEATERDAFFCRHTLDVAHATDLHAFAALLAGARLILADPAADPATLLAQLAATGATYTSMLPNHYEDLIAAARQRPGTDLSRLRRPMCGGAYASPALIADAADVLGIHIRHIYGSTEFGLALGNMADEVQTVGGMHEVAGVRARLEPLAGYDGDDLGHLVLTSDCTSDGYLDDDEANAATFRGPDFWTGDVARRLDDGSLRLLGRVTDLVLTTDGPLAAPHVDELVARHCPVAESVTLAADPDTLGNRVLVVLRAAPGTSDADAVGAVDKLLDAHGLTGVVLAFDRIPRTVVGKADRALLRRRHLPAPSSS
Briefly: LC-MS and GC-MS, cascade assay with BelI or BelR. The settings on record: ATP, MgCl2, phosphate pH 7.8, 25 °C; β-lactonization to 3b.

The next assay has as its target T2, CysG (Kitasatospora cystarginea, UniProt A0A1W6R556).
T2 construct: C-terminal His tag (pET28-a(+)), E. coli BL21(DE3)
T2 sequence (A0A1W6R556 1-228): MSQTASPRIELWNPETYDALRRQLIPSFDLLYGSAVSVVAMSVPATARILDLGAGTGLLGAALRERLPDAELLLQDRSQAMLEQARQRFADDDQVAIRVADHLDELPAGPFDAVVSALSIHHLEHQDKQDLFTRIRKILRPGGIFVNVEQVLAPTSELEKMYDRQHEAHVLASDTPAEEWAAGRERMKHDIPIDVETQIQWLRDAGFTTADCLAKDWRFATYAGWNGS
The assay is described as follows: LC-MS and NMR product analysis. The conditions noted are these: MgCl2, phosphate pH 7.8, 25 °C.

Assay [1] deals with T3, CysF (Kitasatospora cystarginea, UniProt A0A1W6R555).
T3 construct: C-terminal His tag (pET21-a(+)), E. coli; 8RA0 is the apo structure, residues 1-491 mentioned
T3 sequence (A0A1W6R555 1-491): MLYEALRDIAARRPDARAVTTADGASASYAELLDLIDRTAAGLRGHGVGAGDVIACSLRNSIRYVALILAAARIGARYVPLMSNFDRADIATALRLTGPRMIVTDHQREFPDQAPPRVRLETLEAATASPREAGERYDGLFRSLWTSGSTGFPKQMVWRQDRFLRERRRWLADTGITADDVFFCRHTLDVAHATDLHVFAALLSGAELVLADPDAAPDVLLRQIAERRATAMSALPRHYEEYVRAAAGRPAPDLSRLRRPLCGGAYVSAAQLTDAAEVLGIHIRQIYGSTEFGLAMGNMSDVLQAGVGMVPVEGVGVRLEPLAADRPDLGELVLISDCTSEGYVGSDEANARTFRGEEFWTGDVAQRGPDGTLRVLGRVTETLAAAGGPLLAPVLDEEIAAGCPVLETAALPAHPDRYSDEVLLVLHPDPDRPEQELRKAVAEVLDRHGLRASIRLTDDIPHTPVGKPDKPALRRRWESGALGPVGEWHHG
Briefly: GC-MS and 1H NMR product analysis. The settings on record: ATP, MgCl2, phosphate pH 7.8, 25 °C; β-lactonization to 3a.

Another assay addresses T4, BhCysFE (Bradyrhizobium huanghuaihaiense, UniProt A0A562R406).
T4 construct: gene IQ16_06114; natural fusion (CysF-like aa 1-487, linker ATPVNMR, CysE-like aa 495-768), C-terminal His tag (pET28-a(+)), E. coli
T4 sequence (A0A562R406 1-768): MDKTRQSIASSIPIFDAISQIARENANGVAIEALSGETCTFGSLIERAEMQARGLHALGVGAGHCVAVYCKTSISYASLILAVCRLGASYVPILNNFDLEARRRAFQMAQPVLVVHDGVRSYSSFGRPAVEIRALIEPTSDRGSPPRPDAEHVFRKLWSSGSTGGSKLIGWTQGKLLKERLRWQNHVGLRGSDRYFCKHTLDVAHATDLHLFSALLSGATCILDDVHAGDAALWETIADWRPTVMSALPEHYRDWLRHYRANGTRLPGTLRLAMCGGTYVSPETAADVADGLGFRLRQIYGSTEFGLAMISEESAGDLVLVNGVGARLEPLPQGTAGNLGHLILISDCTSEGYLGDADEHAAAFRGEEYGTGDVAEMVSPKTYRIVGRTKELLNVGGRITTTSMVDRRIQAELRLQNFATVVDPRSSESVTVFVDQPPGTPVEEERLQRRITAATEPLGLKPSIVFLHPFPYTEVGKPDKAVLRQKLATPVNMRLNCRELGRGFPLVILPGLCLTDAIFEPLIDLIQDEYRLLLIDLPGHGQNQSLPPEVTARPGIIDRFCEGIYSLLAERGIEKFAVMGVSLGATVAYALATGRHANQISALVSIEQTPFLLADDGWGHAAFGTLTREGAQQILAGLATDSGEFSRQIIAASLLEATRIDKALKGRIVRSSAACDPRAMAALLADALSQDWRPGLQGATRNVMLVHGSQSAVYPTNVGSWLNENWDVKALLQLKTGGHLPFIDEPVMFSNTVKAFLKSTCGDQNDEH
Briefly: LC-MS.

Assay [2] concerns the target T3, CysF. The assay is described as follows: LC-MS, hydroxylamine trapping as hydroxamic acid […]. The conditions noted are these: ATP, adenylation only, no lactone formed.
In a further assay the target is T5, CysE (Kitasatospora cystarginea, UniProt A0A1W6R564).
T5 construct: C-terminal His tag (pET28-a(+)), E. coli BL21(DE3)
T5 sequence (A0A1W6R564 1-271): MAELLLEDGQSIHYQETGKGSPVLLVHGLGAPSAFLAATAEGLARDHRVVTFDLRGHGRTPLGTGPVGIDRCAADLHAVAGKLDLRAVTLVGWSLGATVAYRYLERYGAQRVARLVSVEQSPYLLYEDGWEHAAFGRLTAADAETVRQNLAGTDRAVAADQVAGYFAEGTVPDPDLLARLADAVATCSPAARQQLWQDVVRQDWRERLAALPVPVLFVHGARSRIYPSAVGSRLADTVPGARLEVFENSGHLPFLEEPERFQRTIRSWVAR
Briefly: LC-MS, tandem assay with CysF. The settings on record: 3a generated in situ from 2a by CysF and ATP; MgCl2, phosphate pH 7.8, 25 °C.

Take `CCC(C)[C@H](C(=O)O)[C@@H](O)C(=O)OC` (some centres unmarked) [2b]: the “LC-MS and GC-MS, cascade assay with BelI or BelR” value on BelH was “GC-MS analysis of the CysGF and BelIH cascade confirmed the formation of 3a/b”.

As for `C[S+](CC[C@H](N)C(=O)O)C[C@H]1O[C@@H](n2cnc3c(N)ncnc32)[C@H](O)[C@@H]1O` (some centres unmarked) [S-adenosyl methionine], the “LC-MS and NMR product analysis” value on CysG (co-substrate 1a) was “CysG exclusively produced the C1-methyl ester 2a from 1a and SAM”.

Regarding `COC(=O)[C@H](O)[C@@H](C(=O)O)C(C)C` [2a, C1-methyl ester 2a], on CysF [1], the “GC-MS and 1H NMR product analysis” value was 2a was again consumed in the CysF reaction with ATP. The LC-MS result at BhCysFE (ATP, lactonization and ester hydrolysis to 4a) was “incubated with 2a and ATP, leading to a quantitative production of 4a”.

For the compound `Nc1ncnc2c1ncn2[C@@H]1O[C@H](COP(=O)(O)OP(=O)(O)OP(=O)(O)O)[C@@H](O)[C@H]1O` [adenosine triphosphate], the LC-MS entry at BhCysFE (co-substrate 2a) was “incubated with 2a and ATP, leading to a quantitative production of 4a”.

For the compound `CC(C)[C@H](C(=O)O)[C@@H](O)C(=O)O` [1a, malic acid 1a], the “LC-MS and NMR product analysis” value on CysG (SAM, C1-carboxylate methylated) was “CysG exclusively produced the C1-methyl ester 2a from 1a and SAM”. Moreover, at CysF [2], the “LC-MS, hydroxylamine trapping as hydroxamic acid 10” value is recorded as “CysF can efficiently activate the C4-carboxyl of 1a”.

Turning to `COC(=O)[C@@H]1OC(=O)[C@H]1C(C)C` [3a, β-lactone methyl ester 3a], the “LC-MS, tandem assay with CysF” value at CysE is “tandem reaction with CysF and CysE, including ATP, resulted in the β-lactone carboxylic acid 4a”.

The values above are taken from paper PMC11427300, “Cryptic enzymatic assembly of peptides armed with β-lactone warheads” (Nature Chemical Biology, 2024).
